According to patent publication US10517849B2, “LSD1 inhibitors and medical uses thereof” (Constellation Pharmaceuticals, Inc., priority 2016, dated 2019):
Counter-ions that a name gives are not always drawn.

Columns and labels:
[1] = molecular target: LSD1 (Homo sapiens (Human), UniProt O60341); assay: LSD1 TR-FRET Assay; assay type: biochemical; conditions: biotinylated H3K4me1 peptide 4 μM, 10 nM LSD1, 40 nM FAD, 50 minutes at room temperature
Method: LSD1 demethylase reactions were carried out in 50 mM HEPES pH 7.4, 100 mM NaCl, 1 mM DTT, 0.01% Tween-20, and 0.1 mg/mL BSA. All enzymatic reactions were performed for 50 minutes at room temperature in a 10-μL volume. Five microliters of 8 μM biotinylated H3K4me1 peptide solution was added to each well of a black 384 well, clear-bottom assay plate containing 80 nL compound (final concentration of 0.8% DMSO and 4 μM substrate). Reactions were initiated by the addition of a mixture containing 20 nM LSD1 and 80 nM FAD (5 μL). LSD1 and FAD final concentrations were 10 and 40 nM, respectively. Enzyme activity was stopped by the addition of 90 μL of high salt buffer consisting of 50 mM HEPES pH 7.4, 500 mM NaCl, 1 mM DTT, 0.01% Tween-20, and 0.1 mg/mL BSA. Ten microliters of the quenched reaction mixtures were transferred to a black 384 well ProxiPlate. Ten microliters of detection mixture was added to the ProxiPlate, Europium-labeled antibody and Streptavidin APC were used at final concentrations of 0.3 nM and 200 nM, respectively (total assay volume of 20 μL). Capture of the product peptide by the anti-H3K4me0 antibody and Streptavidin APC was allowed to proceed for 60 min at room temperature before measuring the TR-FRET signal. Plates were read on a Perkin Elmer EnVision. Percent inhibition was calculated using Max (no inhibitor) and Min (quenched with stop buffer) controls and inhibition curves plotted to determine IC50 values.

[2] = tested on: Kasumi-1; assay: Kasumi-1 GI50 Assay; assay type: cell-based; conditions: Homo sapiens, 288 h; Kasumi-1 cells, 12 days, Cell Titer-Glo viability
Method: Cells were plated at 5,000 cells per well in 96 well tissue culture dishes containing tool compounds arrayed in a 10-point dose curve, ranging from […] with 4-fold dilutions, and split every fourth day at a fixed ratio to re-establish 5,000 cells/well density for DMSO-treated controls. Cell treatments were carried out for a total of 12 days. At each 4-day split, the viable cell numbers were determined using the Cell Titer-Glo luminescent cell viability assay (Promega, Madison, Wis. USA) using an EnVision® Multilabel Plate Reader (Perkin Elmer, Waltham, Mass. USA). GraphPad Prism 6 (GraphPad Software, Inc., La Jolla, Calif. USA) was used for curve fitting and determination of GI50 values.

[3] = tested on: LY-96 mRNA induction in MV4-11 cells; assay: LSD1 LY96 Quantigene Assay; assay type: cell-based; conditions: Homo sapiens, 16 h, Quantigene 2.0
Method: MV4-11 cells were cultured at a density of 4×10^4 cells per well in a 96-well plates and treated with various doses inhibitor starting from 10 μM up to 0.0005 μM for 16 h. The LY-96 mRNA induction was quantified using the Quantigene 2.0 system (Affymetrix). The cells were lysed with Lysis Mixture containing Proteinase K. The working reagent for capturing the RNA was prepared according to the steps detailed in “Capturing Target RNA from Cultured Cell or Blood Lysates” in the Quantigene handbook. The subsequent hybridization with LY-96 probe, signal amplification and detection steps were performed as described in the manual. The chemiluminescence was read using Envision (PerkinElmer) and Abase (IDBS software) was used to plot the dose response curves and calculate IC50.

CC/C(=C\c1ccccc1)[C@@H]1C[C@H]1NC1CC2(C1)CN(CCC(N)=O)C2 [Compound 22, 3-(6-(((1R,2S)-2-((E)-1-phenylbut-1-en-2-yl)cyclopropyl)amino)-2-azaspiro[3.3]heptan-2-yl)propanamide bis(2,2,2-trifluoroacetate)]
< 0.1 µM: IC50 [1] | GI50 [2] | EC50 [3]

CC/C(=C\c1ccccc1)[C@@H]1C[C@H]1NC1CC2(C1)CN(C(CO)CO)C2 [Compound 2, 2-(6-(((1R,2S)-2-((E)-1-phenylbut-1-en-2-yl)cyclopropyl)amino)-2-azaspiro[3.3]heptan-2-yl)propane-1,3-diol]
< 0.1 µM: IC50 [1] | GI50 [2] | EC50 [3]

CC/C(=C\c1ccccc1)[C@@H]1C[C@H]1NC1CC2(CCN(CCOC)CC2)C1 [Compound 17, 7-(2-methoxyethyl)-N-((1R,2S)-2-((E)-1-phenylbut-1-en-2-yl)cyclopropyl)-7-azaspiro[3.5]nonan-2-amine dihydrochloride]
< 0.1 µM: IC50 [1] | GI50 [2] | EC50 [3]

CC/C(=C\c1ccccc1)[C@@H]1C[C@H]1NC1CC2(C1)CN(CC(=O)NCCO)C2 [Compound 13, N-(2-hydroxyethyl)-2-(6-(((1R,2S)-2-((E)-1-phenylbut-1-en-2-yl)cyclopropyl)amino)-2-azaspiro[3.3]heptan-2-yl)acetamide bis(2,2,2-trifluoroacetate)]
< 0.1 µM: IC50 [1] | GI50 [2] | EC50 [3]

CC/C(=C\c1ccccc1)[C@@H]1C[C@H]1NC1CC2(CCN(CCO)CC2)C1 [Compound 11, 2-(2-(((1R,2S)-2-((E)-1-phenylbut-1-en-2-yl)cyclopropyl)amino)-7-azaspiro[3.5]nonan-7-yl)ethanol dihydrochloride]
< 0.1 µM: IC50 [1] | GI50 [2] | EC50 [3]

CC/C(=C\c1ccccc1)[C@@H]1C[C@H]1NC1CC2(C1)CN(CCO)C2 [Compound 1, 2-(6-(((1R,2S)-2-((E)-1-phenylbut-1-en-2-yl)cyclopropyl)amino)-2-azaspiro[3.3]heptan-2-yl)ethanol]
< 0.1 µM: IC50 [1] | GI50 [2] | EC50 [3]

CC/C(=C\c1ccccc1)[C@@H]1C[C@H]1NC1CC2(C1)CN(CCS(N)(=O)=O)C2 [Compound 32]
< 0.1 µM: IC50 [1] | GI50 [2] | EC50 [3]

CC/C(=C\c1ccccc1)[C@@H]1C[C@H]1NC1CC2(CCN(CCS(N)(=O)=O)CC2)C1 [Compound 23, 2-(2-(((1R,2S)-2-((E)-1-phenylbut-1-en-2-yl)cyclopropyl)amino)-7-azaspiro[3.5]nonan-7-yl)ethanesulfonamide dihydrochloride]
< 0.1 µM: IC50 [1] | GI50 [2] | EC50 [3]

CC/C(=C\c1ccccc1)[C@@H]1C[C@H]1NC1CC2(C1)CN(CCNS(C)(=O)=O)C2 [Compound 4, N-(2-(6-(((1R,2S)-2-((E)-1-phenylbut-1-en-2-yl)cyclopropyl)amino)-2-azaspiro[3.3]heptan-2-yl)ethyl)methanesulfonamide bis(2,2,2-trifluoroacetate)]
< 0.1 µM: IC50 [1] | GI50 [2] | EC50 [3]
